Experimental findings from patent US20210267979A1, “THERAPEUTIC AGENT FOR TREATING DIFFUSE GASTRIC CANCER” (KANAZAWA MEDICAL UNIVERSITY, priority 2018, published 2021) are described below.

Experiment [1] concerns NUGC4. Put plainly: Cell proliferation of diffuse gastric cancer cell strain NUGC4 (Cell Counting Kit-8). The experiment is classed as cell-based. Particulars: for Inhibitory effect on HGF induced, amphiregulin induced and base line cell proliferation: single agent, 0.001 to 10 micro M; for IC50: Homo sapiens, 72 hours. How it is done: (§1) Each diffuse gastric cancer cell strain of NUGC4 (obtained from Health Science Research Resources Bank (Osaka, Japan)) and GCIY (obtained from Riken BioResource Research Center (Tsukuba, Japan)) was cultured and passaged in an RPMI1640 culture medium containing 10% fetal calf serum, 100 units/mL penicillin, and […] streptomycin antibiotic, and was used for the following experiments. Mycoplasma infection of cultured cells was regularly checked by MycoAlert Mycoplasma Detection kit (Lonza).
(§2) Cell proliferation was measured by Cell Counting Kit-8 (CCK-8) (Dojindo Laboratories, Kumamoto, Japan) (M. Ishiyama, et al., Talenta 44; 1299: 1997). Cells were seeded at 100 micro L/well at a concentration of 5×10^4 cells/mL and were cultured in an incubator at 37° C. for 24 hours. To each well, HGF (R&D systems) (50 ng/mL) or amphiregulin (R&D Systems (Minneapolis, Minn.)) (100 ng/mL) and trametinib (Selleck Chemicals (Houston, Tex.)) (0.001 to 10 micro M) were then added, and the cells were further cultured in an incubator at 37° C. for 72 hours. To each well, 10 micro L of a WST-solution was added, which was incubated at 37° C. for 4 hours. Absorbance was measured at a wavelength of 450 nm by a microplate reader (BIO-RAD Laboratories, Inc.). A similar experiment was repeated three times in triplets.

The next experiment concerns MKN7. Put plainly: Cell proliferation of non-diffuse gastric cancer cells MKN7 (Cell Counting Kit-8). It counts as cell-based, Human. Conditions: for IC50: Homo sapiens, MKN-7, MKN7. On the procedure: as §2
(§3) Effects of trametinib on proliferation of non-diffuse gastric cancer cell were examined by the similar method to that in Example 1.
(§4) Human non-diffuse, well-differentiated gastric cancer cells used were MKN7 (Health Science Research Resources Bank (Osaka, Japan)) and GCR1 (Cancer Research Institute, Kanazawa University).
On the technique in general: Formazan colour is commonly taken as a measure of viable cells.

The subject of another experiment is GCIY. Put plainly: Cell proliferation of diffuse gastric cancer cell strain GCIY (Cell Counting Kit-8). The experiment is classed as cell-based. Conditions: for IC50: Homo sapiens. How it is done:
as §1, §2

The next experiment relates to GCR1. As to the kind of experiment: Cell proliferation of non-diffuse gastric cancer cells GCR1 (Cell Counting Kit-8). It counts as cell-based. Conditions: Homo sapiens. On the procedure:
as §2, §3, §4

For the next experiment, the system named is MKN45. Put plainly: Cell proliferation of cMet gene-amplified gastric cancer cell strain MKN45 (Cell Counting Kit-8). The experiment is classed as cell-based. Conditions: Homo sapiens. How it is done:
as §2
Effects of trametinib on proliferation of cMet gene-amplified gastric cancer cell were examined by the similar method to that in Example 1.
As the cMet gene-amplified gastric cancer cells, cMet gene-amplified gastric cancer cell strain MKN45 (Health Science Research Resources Bank (Osaka, Japan)) was used.

For experiment [2], the system named is NUGC4. As to the kind of experiment: Cell proliferation of diffuse gastric cancer cell strain NUGC4 (Cell Counting Kit-8). The experiment is classed as cell-based. Particulars: for IC50: Homo sapiens.
In a further experiment the test system is NUGC4 cells. Put plainly: Survival of Balb/c nu/nu mice intraperitoneally transplanted with diffuse gastric cancer cells. It counts as in vivo, Balb/c nu/nu mouse. Particulars: NUGC4 intraperitoneal transplant; oral administration from day 21 for 4 weeks, then 4 weeks observation; control mice all died within 7 weeks.
Setting [3] is: HGF induced proliferation, read-out: Trametinib IC50 (micro M) HGF.
Where [4] appears, read: HGF induced, combined with everolimus 1 micro M, read-out: Trametinib IC50 (micro M) HGF.
Setting [5] is: amphiregulin induced proliferation, read-out: Trametinib IC50 (micro M) amphiregulin.
Setting [6] is: amphiregulin induced, combined with everolimus 1 micro M, read-out: Trametinib IC50 (micro M) amphiregulin.
Where [7] appears, read: base line, Example 5, combined use with everolimus 1 micro M, read-out: Trametinib IC50 (micro M) Base line.
Where [8] appears, read: without HGF or amphiregulin, read-out: Trametinib IC50 (micro M) Base line.

Like-named read-outs stand apart in the source and are kept apart here. A value given as a limit tells only on which side of the number the result lay.

The term IC50 denotes the point on the concentration scale where inhibition reaches its midpoint.

Protocol for NUGC4 cells: To a Balb/c nu/nu mouse (6 weeks old), diffuse gastric cancer cells (NUGC4 cells, 2×10^6 cells in 200 micro L PBS) were transplanted by intraperitoneal administration. On 21 days after transplantation, ascites was observed, and oral administration was started with trametinib (0.1 mg/kg body weight or 0.3 mg/kg body weight), everolimus (1.5 mg/kg body weight), combined use of trametinib (0.1 mg/kg body weight) and everolimus (1 mg/kg body weight), combined use of trametinib (0.1 mg/kg body weight) and everolimus (1 mg/kg body weight), combined use of trametinib (0.3 mg/kg) and everolimus (1 mg/kg), or combined use of trametinib (0.3 mg/kg body weight) and everolimus (5 mg/kg body weight). Each of the trametinib and the everolimus was dissolved in a solution (7% DMSO, 13% Tween80, 80% Otsuka glucose injection (5%), HCl equimolar to each compound). To a control group, only a solution containing no medicinal agent was administered. Administration was continued for 4 weeks, followed by observation for the following 4 weeks without administration of the medicinal agent.

Turning to AZD5363, in the experiment with NUGC4 [1] (HGF induced), the “Inhibitory effect on the HGF induced cell proliferation” value is “no inhibitory effect was exhibited except for a high concentration of 10 micro M”. In addition, the “Inhibitory effect on the amphiregulin induced cell proliferation” value with NUGC4 [1] (amphiregulin induced) is “a slight inhibitory effect was exhibited at a high concentration of 1 micro M or more”. Further, the “Inhibitory effect on HGF induced, amphiregulin induced and base line cell proliferation” value in the experiment with NUGC4 [1] is listed as “even lower than the inhibitory effect of everolimus”. In addition, the “Inhibitory effect on the base line cell proliferation” value in the experiment on NUGC4 [1] (without HGF and AP) is listed as “No inhibitory effect was exhibited”.
Regarding `Cc1cc(NC(=O)c2cccc(NC(=O)/C=C/CN(C)C)c2)ccc1Nc1nccc(-c2cccnc2)n1` [JNK-IN-8], the “Inhibitory effect on HGF induced, amphiregulin induced and base line cell proliferation” value with NUGC4 [1] is recorded as “did not exhibit obvious inhibitory effects”.
With `O=C(NC[C@H](O)CO)c1ccncc1Nc1ccc(I)cc1F` [pimasertib], in the experiment with MKN7 (MKN7, rapamycin 1 micro M), the “Proliferation inhibitory effect of combined use of pimasertib and rapamycin” value is recorded as “no combined effect was exhibited”.
As for `CC(=O)Nc1cccc(-n2c(=O)n(C3CC3)c(=O)c3c(Nc4ccc(I)cc4F)n(C)c(=O)c(C)c32)c1` [Trametinib, trametinib], the IC50 was found to be 0.1 µM with MKN7 (setting [3]); 0.1 µM with MKN7 (setting [4]); 0.3 µM in the experiment with MKN7 (setting [5]); 0.1 µM with MKN7 (setting [6]); 0.03 µM in the experiment with MKN7 (setting [7]); 0.1 µM in the experiment on MKN7 (setting [8]). The IC50 in the experiment with GCIY (HGF 50 ng/mL induced proliferation, 72 hours, read-out: Trametinib IC50 (micro M) HGF) is 0.1 µM; in the experiment with GCIY (setting [4]) it was 0.1 µM; in the experiment on GCIY (amphiregulin 100 ng/mL induced proliferation, 72 hours, read-out: Trametinib IC50 (micro M) amphiregulin), 10 µM; with GCIY (setting [6]), 0.3 µM; in the experiment with GCIY (setting [7]), 0.03 µM; in the experiment with GCIY (without HGF and AP, 72 hours, read-out: Trametinib IC50 (micro M) Base line) it was 0.1 µM. In addition, the IC50 is 0.1 µM in the experiment with GCR1 (setting [3]); 0.1 µM in the experiment with GCR1 (setting [4]); 0.3 µM in the experiment on GCR1 (setting [5]); 0.1 µM in the experiment with GCR1 (setting [6]); 0.03 µM in the experiment with GCR1 (setting [7]); 0.1 µM with GCR1 (setting [8]). Also, the IC50 was 0.001 µM in the experiment on MKN45 (MKN-45, HGF added, read-out: Trametinib IC50 (micro M) HGF); 0.001 µM in the experiment on MKN45 (MKN-45, amphiregulin added, read-out: Trametinib IC50 (micro M) amphiregulin); 0.001 µM in the experiment on MKN45 (MKN-45, without HGF and AP, read-out: Trametinib IC50 (micro M) Base line); 0.1 µM in the experiment with NUGC4 [1] (NUGC-4, HGF 50 ng/mL induced proliferation, read-out: Trametinib IC50 (micro M) HGF); 0.3 µM in the experiment with NUGC4 [1] (NUGC-4, amphiregulin 100 ng/mL induced proliferation, read-out: Trametinib IC50 (micro M) amphiregulin); at most 0.001 µM in the experiment on NUGC4 [1] (NUGC-4, without HGF and AP, read-out: Trametinib IC50 (micro M) Base line). Besides, the IC50 in the experiment on NUGC4 [2] (NUGC-4, HGF induced, combined with everolimus 1 micro M, read-out: Trametinib IC50 (micro M) HGF) was 0.01 µM; in the experiment with NUGC4 [2] (NUGC-4, amphiregulin induced, combined with everolimus 1 micro M, read-out: Trametinib IC50 (micro M) amphiregulin), 0.03 to 0.1 µM; in the experiment with NUGC4 [2] (NUGC-4, base line, Example 5, combined use with everolimus 1 micro M, read-out: Trametinib IC50 (micro M) Base line) it was at most 0.001 µM. The “Concentration from which proliferation inhibitory effect on the amphiregulin induced proliferation was observed” value with GCIY (amphiregulin induced) is on record as at least 0.03 micro M.
`O=C(NOC[C@H](O)CO)c1ccc(F)c(F)c1Nc1ccc(I)cc1F` [PD0325901]: the “Proliferation inhibitory effect of combined use of PD0325901 and temsirolimus” value with MKN7 (MKN7, temsirolimus 1 micro M) is listed as “no combined effect was exhibited”; in the experiment on NUGC4 [2] (temsirolimus 1 micro M) it was “synergistically improved by addition of temsirolimus”.
As to `CO[C@H]1C[C@@H]2CC[C@@H](C)[C@@](O)(O2)C(=O)C(=O)N2CCCC[C@H]2C(=O)O[C@H]([C@H](C)C[C@@H]2CC[C@@H](OCCO)[C@H](OC)C2)CC(=O)[C@H](C)/C=C(\C)[C@@H](O)[C@@H](OC)C(=O)[C@H](C)C[C@H](C)/C=C/C=C/C=C/1C` [everolimus], the “Survival time as compared with the control group” value in the experiment on NUGC4 cells is on record as “prolonged survival times”.
